pIC50: −log10 of the molar value.
Molecular target: T1, Dihydrofolate reductase (Homo sapiens, UniProt P00374)
T1 sequence (P00374 whole entry): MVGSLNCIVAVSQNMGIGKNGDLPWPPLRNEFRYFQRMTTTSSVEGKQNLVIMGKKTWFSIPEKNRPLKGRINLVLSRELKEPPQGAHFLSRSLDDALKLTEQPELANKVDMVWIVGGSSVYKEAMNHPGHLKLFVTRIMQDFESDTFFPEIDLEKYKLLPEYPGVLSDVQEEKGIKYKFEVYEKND
Assay: Spectrophotometric Enzyme Assay: Compounds were evaluated in spectrophotometric enzyme assays using ChDHFR-TS and hDHFR. Inhibition constants (IC50) were measured (see Table 4). The lead compound, X, has an inhibition constant of 38 nM and modest selectivity (8-fold).

`COc1cc(-c2ccccc2C)ccc1C(C)C#Cc1c(C)nc(N)nc1N` (stereo unspecified) was tested, and the pIC50 was 5.56.

Source: ChEMBL document CHEMBL3639084, “Heterocyclic analogs of propargyl-linked inhibitors of dihydrofolate reductase” (2014)
